# Data: US20250304537A1 (Repare Therapeutics Inc., priority 2022, published 2025)
# Read-outs that look alike come from different tables or passages of the source.
# Test system: PKMYT1 (CDK1 pThr14) in FUOV1 cells
# Test: PKMYT1 cell-based activity assay, CDK1 pThr14 AlphaLISA in FUOV1 cells
# Conditions: 2 h, read-out: FUOV-1 CDK1 pThr14 IC50
# Description: To determine compound IC50 (PKMYT1 cell-based activity assay, CDK1 pThr14 AlphaLISA), FUOV1 cells were plated into a 96-well TC-treated culture plate at 50000 cells/well in a final volume of 100 μL of media. The plates were then allowed to equilibrate in a biological safety cabinet for 30 minutes before being placed in a humidified incubator at 37 C and 5% CO2 overnight. The next day, 2 μL of PKMYT1 inhibitors or DMSO were diluted in 400 μL of warmed culture media in a 96-well block using a Biomek FX liquid handler. Compounds were mixed in media and then 25 μL was dispensed into each well of the 96-well cell plate. Plates were centrifuged at 300 g for 10 seconds and then placed in the incubator for 2 hours. After the 2-hour incubation with compound, media was removed via aspiration using a multichannel pipette. 30 μL of 1× AlphaLISA lysis buffer (Perkin Elmer) supplemented with protease and phosphatase inhibitors as well as 1 mM PMSF, was added to each well. Plates were rotated at 500 g for 20 minutes to facilitate lysis. Plates were then sealed with aluminum foil and frozen at −80° C. for at least 1 hour. Lysates were thawed at 37° C. for 10 minutes, then 10 μL of each lysate was transferred in duplicate to a white 384-well assay plate. Antibody mixture was prepared in 1× AlphaLISA assay buffer (Perkin Elmer) containing antibodies (5 nM final concentration for rabbit pThr14-CDK1 from Abcam #ab58509 and mouse total CDK1 from ThermoFisher Scientific #33-1800). 5 μL of antibody mixture was added to each well of the assay plate. The assay plate was sealed and stored at 4° C. overnight. The next day, AlphaLISA bead mixture (Perkin Elmer) was prepared in 1× AlphaLISA assay buffer. Anti-rabbit IgG Acceptor (Perkin Elmer #AL104C) and anti-mouse IgG Donor beads (Perkin Elmer #AS104D) were prepared to a concentration of 80 μg/ml in assay buffer. 5 μL of bead mixture was added to each well of the assay plate (20 μg/ml final concentration for each bead). The plate was protected from light and incubated for 2 hours at room temperature. After a 2-hour incubation with beads, the plate was read using the Perkin Elmer EnVision Multimode plate reader with excitation at 680 nm and emission at 615 nm.
Compound,IC50 (2 h compound incubation),IC50 (2 hours with compound),other results
"Cc1ccc(F)c(Nc2ncc(F)cc2-c2nc(C(N)=O)c(N)c(-c3c(C)ccc(O)c3C)n2)n1 [Compound 715, 5-amino-2-[5-fluoro-2-[(3-fluoro-6-methyl-2-pyridyl)amino]-3-pyridyl]-6-(3-hydroxy-2,6-dimethyl-phenyl)pyrimidine-4-carboxamide]",9 nM,,
Cc1ccc2[nH]ncc2c1-c1cc2c(oc3ccc(N4CCOCC4)nc32)c(C(N)=O)c1N [Compound 652],266 nM,,
NC(=O)c1nc(-c2ccccc2Nc2ncccn2)nc(-c2c(Cl)ccc3[nH]ncc23)c1N [Compound 948],,44 nM,
Cc1c(F)cc2[nH]ncc2c1-c1nc(-c2ccc(F)nc2Nc2nc(C(F)F)ccc2F)nc(C(N)=O)c1N [Compound 858],,7 nM,
Cc1ccc2[nH]ncc2c1-c1nc(-c2cn(C)nc2Nc2ncccn2)nc(C(N)=O)c1N [Compound 926],,659 nM,
COc1ccccc1-c1nc(C(N)=O)c(N)c(-c2c(C)ccc3[nH]ncc23)n1 [Compound 777],> 10000 nM,,
Cc1c(F)cc2[nH]ncc2c1-c1nc(-c2ccc(F)cc2Nc2ncccc2C#N)nc(C(N)=O)c1N [Compound 865],,10 nM,
"Cc1ccc2[nH]ncc2c1-c1nc(-c2nccnc2NCC(F)(F)F)nc(C(N)=O)c1N [Compound 555, 5-amino-6-(5-methyl-1H-indazol-4-yl)-2-(3-((2,2,2-trifluoroethyl)amino)pyrazin-2-yl)pyrimidine-4-carboxamide]",219 nM,,
Cc1csc(Nc2cc(F)ccc2-c2nc(C(N)=O)c(N)c(-c3c(C)ccc4[nH]ncc34)n2)n1 [Compound 588],45 nM,,
COc1cnnc(Nc2cc(F)ccc2-c2nc(C(N)=O)c(N)c(-c3c(C)ccc4[nH]ncc34)n2)c1 [Compound 566],76 nM,,
Cc1cc(F)c2[nH]ncc2c1-c1nc(-c2cccnc2NC2CC2)nc(C(N)=O)c1N [Compound 871],,39 nM,
Cn1cc(-c2nc(C(N)=O)c(N)c(-c3c(Cl)ccc4[nH]ncc34)n2)c(NC2CCCC2)n1 [Compound 920],,118 nM,
Cc1ccc2[nH]ncc2c1-c1nc(-c2ccccc2-c2ccn[nH]2)nc(C(N)=O)c1N [Compound 816],,> 10000 nM,
Cc1ccc2[nH]ncc2c1-c1nc(-c2ccc(F)cc2Nc2ncncc2C#N)nc(C(N)=O)c1N [Compound 655],4 nM,,
"Cc1ncc(F)c(Nc2nc(F)ccc2-c2nc(C(N)=O)c(N)c(-c3c(C)ccc4[nH]ncc34)n2)n1 [Compound 954, 5-amino-2-(6-fluoro-2-((5-fluoro-2-methylpyrimidin-4-yl)amino)pyridin-3-yl)-6-(5-methyl-1H-indazol-4-yl)pyrimidine-4-carboxamide]",,11 nM,
Cc1ccc2[nH]ncc2c1-c1cc2c(oc3ccc(N[C@H]4CCOC4)nc32)c(C(N)=O)c1N [Compound 668],94 nM,,
Cc1ccc2[nH]ncc2c1-c1nc(-c2ccc(F)nc2Nc2nccnc2Cl)nc(C(N)=O)c1N [Compound 924],,15 nM,
Cc1ccc2[nH]ncc2c1-c1nc(-c2ccc(F)nc2NC2CS(=O)(=O)C2)nc(C(N)=O)c1N [Compound 819],,23 nM,
Cc1ccc2[nH]ncc2c1-c1nc(-c2ccccc2NC2CC(O)(C(F)(F)F)C2)nc(C(N)=O)c1N (centres unmarked) [Compound 882],,49 nM,

Compound,IC50 (2 h compound incubation),IC50 (2 hours with compound),other results
Cc1ccc(F)nc1Nc1ncccc1-c1nc(C(N)=O)c(N)c(-c2c(C)ccc3[nH]ncc23)n1 [Compound 724],13 nM,,
Cc1cc(F)c2[nH]ncc2c1-c1nc(-c2cc(F)ccc2Nc2ncc(F)cn2)nc(C(N)=O)c1N [Compound 677],451 nM,,
[2H]C([2H])([2H])c1ccc2[nH]ncc2c1-c1nc(-c2cccnc2Nc2nc(C)ccc2F)nc(C(N)=O)c1N [Compound 824],,2 nM,
COc1cc(-c2nc(C(N)=O)c(N)c(-c3c(C)ccc4[nH]ncc34)n2)ccn1 [Compound 135],,,IC50 (2 h incubation): 1150 nM
Cc1ccc2[nH]ncc2c1-c1nc(-c2cccnc2NCC(C)(C)O)nc(C(N)=O)c1N [Compound 682],83 nM,,
NC(=O)c1nc(-c2ccc(F)nc2Nc2ncccc2F)nc(-c2c(F)ccc3[nH]ncc23)c1N [Compound 971],,21 nM,
Cc1ccc2[nH]ncc2c1-c1nc(-c2cc(F)cnc2NC2COC2)nc(C(N)=O)c1N [Compound 712],66 nM,,
Cc1ccc(F)c(Nc2nc(F)ccc2-c2nc(C(N)=O)c(N)c(-c3c(C)c(F)cc4[nH]ncc34)n2)n1 [Compound 850],,5 nM,
Cc1ccc2[nH]ncc2c1-c1nc(-c2cccnc2NC2CCCOC2)nc(C(N)=O)c1N (centres unmarked) [Compound 582],15 nM,,
Cc1ccc2[nH]ncc2c1-c1nc(-c2ccc(F)cc2Nc2nccc(C#N)n2)nc(C(N)=O)c1N [Compound 532],21 nM,,
Cc1c(F)cc2[nH]ncc2c1-c1nc(-c2cccnc2NC2CC2)nc(C(N)=O)c1N [Compound 848],,78 nM,
Cc1ccc2[nH]ncc2c1-c1nc(-c2cccnc2NC2CCOC(C)(C)C2)nc(C(N)=O)c1N (centres unmarked) [Compound 592],603 nM,,
Cc1ccc2[nH]ncc2c1-c1nc(-c2ccc(C#N)cc2N[C@H]2C[C@@](C)(O)C2)nc(C(N)=O)c1N [Compound 822],,172 nM,
Cc1ccc2[nH]ncc2c1-c1nc(-c2ccncc2Nc2ncccc2F)nc(C(N)=O)c1N [Compound 938],,2 nM,
Cc1ccc2[nH]ncc2c1-c1nc(-c2ccc(C#N)cc2Nc2ncccn2)nc(C(N)=O)c1N [Compound 645],12 nM,,
Cc1ccc2[nH]ncc2c1-c1nc(-c2ccccc2[S+](C)[O-])nc(C(N)=O)c1N (centres unmarked) [Compound 820],,229 nM,
Cc1ccc2[nH]ncc2c1-c1nc(-c2ccc(F)nc2Nc2ncccn2)nc(C(N)=O)c1N [Compound 758],83 nM,,
Cc1ccc2[nH]ncc2c1-c1nc(-c2ccc(F)cc2Nc2cc(C3(C#N)CC3)ccn2)nc(C(N)=O)c1N [Compound 698],1610 nM,,
Cc1ccc2[nH]ncc2c1-c1nc(-c2ccc(F)cc2Nc2cncc(C#N)n2)nc(C(N)=O)c1N [Compound 706],56 nM,,

Compound,IC50 (2 h compound incubation),IC50 (2 hours with compound),other results
Cc1ccc2[nH]ncc2c1-c1nc(-c2ccc(C#N)cc2NC2CCOCC2)nc(C(N)=O)c1N [Compound 782],25 nM,,
[2H]C([2H])([2H])c1ccc2[nH]ncc2c1-c1nc(-c2ccc(Cl)nc2Nc2nccnc2F)nc(C(N)=O)c1N [Compound 966],,11 nM,
Cc1ccc2[nH]ncc2c1-c1nc(-c2cc(F)cnc2N[C@H]2CCOC2)nc(C(N)=O)c1N [Compound 711],14 nM,,
Cc1ccnnc1Nc1cc(F)ccc1-c1nc(C(N)=O)c(N)c(-c2c(C)ccc3[nH]ncc23)n1 [Compound 540],9 nM,,
Cc1ccc2[nH]ncc2c1-c1nc(-c2cccnc2Nc2ccncc2)nc(C(N)=O)c1N [Compound 562],24 nM,,
Cc1ccc2[nH]ncc2c1-c1nc(-c2ccc(F)nc2Nc2ncccc2C#N)nc(C(N)=O)c1N [Compound 934],,12 nM,
"Cc1ccc2[nH]ncc2c1-c1nc(-c2ccncc2NC(=O)C(C)(C)C)cc(C(N)=O)c1N [Compound 507, 5-amino-6-(5-methyl-1H-indazol-4-yl)-3′-pivalamido-[2,4′-bipyridine]-4-carboxamide]",166 nM,,
Cc1ccc2[nH]ncc2c1-c1nc(-c2cc(F)cnc2NCc2cnn(C)c2)nc(C(N)=O)c1N [Compound 895],,876 nM,
Cc1ccc2[nH]ncc2c1-c1nc(-c2cc(F)ccc2NS(=O)(=O)C2CC(F)(F)C2)nc(C(N)=O)c1N [Compound 514],1340 nM,,
Cc1cc(Nc2cc(F)ccc2-c2nc(C(N)=O)c(N)c(-c3c(C)ccc4[nH]ncc34)n2)ncn1 [Compound 524],69 nM,,
Cc1ccc(-c2nc(C(N)=O)c(N)c(-c3c(F)ccc4[nH]ncc34)n2)c(Nc2ncccc2F)n1 [Compound 952],,1 nM,
Cc1ccc2[nH]ncc2c1-c1nc(-c2cccnc2N[C@@H]2CC[C@@H](O)C2)nc(C(N)=O)c1N [Compound 786],9 nM,,
Cc1ccc(-c2nc(C(N)=O)c(N)c(-c3c(F)ccc4[nH]ncc34)n2)c(Nc2ncccn2)n1 [Compound 953],,153 nM,
Cc1ccc2[nH]ncc2c1-c1nc(-c2cccnc2N[C@H]2CCOC[C@@H]2F)nc(C(N)=O)c1N [Compound 648],51 nM,,
NC(=O)c1nc(-c2cccnc2NC2CC2)nc(-c2cccc3[nH]ncc23)c1N [Compound 932],,469 nM,
Cc1ccc2[nH]ncc2c1-c1nc(-c2cc(F)c(F)cc2NCC2(C)COC2)nc(C(N)=O)c1N [Compound 503],23 nM,,
Cc1ccc2[nH]ncc2c1-c1nc(-c2cc(F)cnc2NC2CCN(C)CC2)nc(C(N)=O)c1N [Compound 838],,55 nM,
COc1ncc(F)c(Nc2cc(F)ccc2-c2nc(C(N)=O)c(N)c(-c3c(C)ccc4[nH]ncc34)n2)n1 [Compound 627],12 nM,,
